{"source": "patent US12275731B2", "about": "“Azaindole inhibitors of wild-type and mutant forms of LRRK2” (DANA-FARBER CANCER INSTITUTE, INC., priority 2018, dated 2025)", "assay_in_all_cases": "KinomeScan profiling", "format_in_all_cases": "binding", "key": {"CDKL5": {"target": "T1, CDKL5 (Homo sapiens, UniProt O76039)", "T1 sequence (O76039 1-960)": "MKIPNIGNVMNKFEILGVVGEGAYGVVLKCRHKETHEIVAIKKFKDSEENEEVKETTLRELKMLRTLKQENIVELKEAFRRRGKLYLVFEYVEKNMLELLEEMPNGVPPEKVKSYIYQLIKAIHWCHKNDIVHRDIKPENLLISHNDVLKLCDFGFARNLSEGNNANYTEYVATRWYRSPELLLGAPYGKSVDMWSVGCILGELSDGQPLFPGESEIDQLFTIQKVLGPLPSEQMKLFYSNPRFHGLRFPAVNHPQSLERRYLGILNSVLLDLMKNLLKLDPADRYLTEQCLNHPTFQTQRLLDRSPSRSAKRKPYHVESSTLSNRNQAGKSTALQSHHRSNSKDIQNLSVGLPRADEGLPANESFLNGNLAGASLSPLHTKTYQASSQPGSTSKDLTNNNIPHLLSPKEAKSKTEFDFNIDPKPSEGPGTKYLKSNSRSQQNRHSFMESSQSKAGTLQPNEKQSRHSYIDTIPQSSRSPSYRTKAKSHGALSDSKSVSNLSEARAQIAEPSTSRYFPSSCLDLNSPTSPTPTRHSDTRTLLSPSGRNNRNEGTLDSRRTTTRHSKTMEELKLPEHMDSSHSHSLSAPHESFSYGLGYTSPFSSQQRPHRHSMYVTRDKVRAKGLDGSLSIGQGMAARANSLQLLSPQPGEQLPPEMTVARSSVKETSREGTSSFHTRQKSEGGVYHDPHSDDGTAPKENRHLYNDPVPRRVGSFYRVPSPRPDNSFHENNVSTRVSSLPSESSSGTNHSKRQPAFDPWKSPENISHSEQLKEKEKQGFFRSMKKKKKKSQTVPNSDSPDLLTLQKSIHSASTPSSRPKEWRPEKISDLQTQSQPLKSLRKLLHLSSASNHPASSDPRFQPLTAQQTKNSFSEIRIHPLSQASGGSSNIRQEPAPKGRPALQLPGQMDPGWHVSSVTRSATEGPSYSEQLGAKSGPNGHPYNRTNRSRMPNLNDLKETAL", "conditions": "CDKL5, 1 μM; read-out: % control", "how_it_was_run": "(§1)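 At 1 μM in DMSO, compounds are run through a broad 468-member kinase panel. The luminescent read-out is normalised so that vehicle gives 100% and a positive control gives 0%; any kinase falling below 35% is treated as a target.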"}, "CDK2": {"target": "CDK2 (Homo sapiens, UniProt P24941)", "conditions": "CDK2, 1 μM; read-out: % control", "how_it_was_run": "as §1"}, "IRAK4": {"target": "T2, IRAK4 (Homo sapiens, UniProt Q9NWZ3)", "T2 construct": "purchased KinomeScan®", "T2 sequence (Q9NWZ3 1-460)": "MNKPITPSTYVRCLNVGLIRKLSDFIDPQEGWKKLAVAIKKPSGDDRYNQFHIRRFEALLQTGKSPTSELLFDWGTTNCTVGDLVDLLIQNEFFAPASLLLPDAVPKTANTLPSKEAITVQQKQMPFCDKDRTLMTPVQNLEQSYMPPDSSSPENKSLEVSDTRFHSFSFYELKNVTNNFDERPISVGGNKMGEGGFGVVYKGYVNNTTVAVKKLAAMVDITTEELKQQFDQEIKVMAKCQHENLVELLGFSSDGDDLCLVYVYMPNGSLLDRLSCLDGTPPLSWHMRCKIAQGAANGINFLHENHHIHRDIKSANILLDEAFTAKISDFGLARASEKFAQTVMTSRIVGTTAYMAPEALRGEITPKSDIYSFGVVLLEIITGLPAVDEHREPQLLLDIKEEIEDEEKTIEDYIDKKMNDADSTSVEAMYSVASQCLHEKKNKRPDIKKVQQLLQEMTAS", "conditions": "IRAK4, 1 μM; read-out: % control", "how_it_was_run": "as §1"}, "NEK2": {"target": "T3, NEK2 (Homo sapiens, UniProt P51955)", "T3 sequence (P51955 1-445)": "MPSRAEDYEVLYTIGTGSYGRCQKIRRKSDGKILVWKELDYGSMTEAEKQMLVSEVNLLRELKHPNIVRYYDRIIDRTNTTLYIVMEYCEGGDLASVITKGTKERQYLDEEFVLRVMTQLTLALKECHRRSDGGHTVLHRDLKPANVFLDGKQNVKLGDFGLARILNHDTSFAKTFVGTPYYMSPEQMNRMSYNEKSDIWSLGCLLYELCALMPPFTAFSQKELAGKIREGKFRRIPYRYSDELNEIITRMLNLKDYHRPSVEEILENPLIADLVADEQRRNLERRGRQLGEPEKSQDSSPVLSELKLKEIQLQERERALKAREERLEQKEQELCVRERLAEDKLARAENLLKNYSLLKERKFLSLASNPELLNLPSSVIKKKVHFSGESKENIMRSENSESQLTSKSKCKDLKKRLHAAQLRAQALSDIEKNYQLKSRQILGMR", "conditions": "NEK2, 1 μM; read-out: % control", "how_it_was_run": "as §1"}, "MEK5": {"target": "T4, MEK5 (Homo sapiens, UniProt Q13163)", "T4 sequence (Q13163 1-448)": "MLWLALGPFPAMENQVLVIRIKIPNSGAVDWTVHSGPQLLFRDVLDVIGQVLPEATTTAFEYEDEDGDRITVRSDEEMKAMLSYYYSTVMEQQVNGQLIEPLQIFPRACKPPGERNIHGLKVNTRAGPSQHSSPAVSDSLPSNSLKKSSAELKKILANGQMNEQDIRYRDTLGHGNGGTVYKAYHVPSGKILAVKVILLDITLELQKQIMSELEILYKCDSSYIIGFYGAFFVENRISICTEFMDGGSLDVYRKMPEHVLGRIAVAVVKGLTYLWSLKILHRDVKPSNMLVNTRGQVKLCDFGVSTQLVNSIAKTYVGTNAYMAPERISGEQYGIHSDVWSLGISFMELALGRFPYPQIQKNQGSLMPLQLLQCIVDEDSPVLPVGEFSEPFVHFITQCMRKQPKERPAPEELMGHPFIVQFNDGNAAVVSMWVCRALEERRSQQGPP", "conditions": "MEK5, 1 μM; read-out: % control", "how_it_was_run": "as §1"}}}
{"smiles": "O=C(c1ccc(-c2cnc3[nH]cc(Cl)c3c2NC2CCCC2)cc1)N1CCC(N2CCOCC2)CC1", "note": "[Compound 101, (4-(3-chloro-4-(cyclopentylamino)-1H-pyrrolo[2,3-b]pyridin-5-yl)phenyl)(4-morpholinopiperidin-1-yl)methanone]", "values": [{"measurement": "remaining binding at 1 µM", "setting": "CDKL5", "result": 70, "unit": "%"}, {"measurement": "remaining binding at 1 µM", "setting": "CDK2", "result": 100, "unit": "%"}, {"measurement": "remaining binding at 1 µM", "setting": "IRAK4", "result": 100, "unit": "%"}, {"measurement": "remaining binding at 1 µM", "setting": "NEK2", "result": 100, "unit": "%"}, {"measurement": "remaining binding at 1 µM", "setting": "MEK5", "result": 100, "unit": "%"}]}
{"smiles": "CNc1c(-c2cnn([C@H]3CCN(C(C)=O)C[C@@H]3F)c2)cnc2[nH]cc(Cl)c12", "note": "[Compound 77, 1-((3S,4S)-4-(4-(3-chloro-4-(methylamino)-1H-pyrrolo[2,3-b]pyridin-5-yl)-1H-pyrazol-1-yl)-3-fluoropiperidin-1-yl)ethan-1-one]", "values": [{"measurement": "remaining binding at 1 µM", "setting": "CDKL5", "result": 94, "unit": "%"}, {"measurement": "remaining binding at 1 µM", "setting": "CDK2", "result": 100, "unit": "%"}, {"measurement": "remaining binding at 1 µM", "setting": "IRAK4", "result": 26, "unit": "%"}, {"measurement": "remaining binding at 1 µM", "setting": "NEK2", "result": 100, "unit": "%"}, {"measurement": "remaining binding at 1 µM", "setting": "MEK5", "result": 3.2, "unit": "%"}]}
{"smiles": "CNc1c(-c2ccc(C(=O)N3CCC(N4CCOCC4)CC3)cc2)cnc2[nH]cc(Cl)c12", "note": "[Compound 96, (4-(3-chloro-4-(methylamino)-1H-pyrrolo[2,3-b]pyridin-5-yl)phenyl)(4-morpholinopiperidin-1-yl)methanone]", "values": [{"measurement": "remaining binding at 1 µM", "setting": "CDKL5", "result": 92, "unit": "%"}, {"measurement": "remaining binding at 1 µM", "setting": "CDK2", "result": 100, "unit": "%"}, {"measurement": "remaining binding at 1 µM", "setting": "IRAK4", "result": 62, "unit": "%"}, {"measurement": "remaining binding at 1 µM", "setting": "NEK2", "result": 100, "unit": "%"}, {"measurement": "remaining binding at 1 µM", "setting": "MEK5", "result": 7.3, "unit": "%"}]}
